Calls of active or inactive are those of the source.
Tests used:
[1] = Counterscreen for inhibitors of Trypanosoma brucei methionyl tRNA synthetase (MetRS): Luminescence-based cell-based high throughput dose response assay to identify compounds that are cytotoxic to Jurkat human T lymphocyte cells.; assay type: functional
[2] = target: T1, Methionyl-tRNA synthetase, putative (Trypanosoma brucei brucei, UniProt Q38C91); assay type: functional, Trypanosoma brucei brucei strain 927/4 GUTat10.1
T1 sequence (Q38C91 whole entry): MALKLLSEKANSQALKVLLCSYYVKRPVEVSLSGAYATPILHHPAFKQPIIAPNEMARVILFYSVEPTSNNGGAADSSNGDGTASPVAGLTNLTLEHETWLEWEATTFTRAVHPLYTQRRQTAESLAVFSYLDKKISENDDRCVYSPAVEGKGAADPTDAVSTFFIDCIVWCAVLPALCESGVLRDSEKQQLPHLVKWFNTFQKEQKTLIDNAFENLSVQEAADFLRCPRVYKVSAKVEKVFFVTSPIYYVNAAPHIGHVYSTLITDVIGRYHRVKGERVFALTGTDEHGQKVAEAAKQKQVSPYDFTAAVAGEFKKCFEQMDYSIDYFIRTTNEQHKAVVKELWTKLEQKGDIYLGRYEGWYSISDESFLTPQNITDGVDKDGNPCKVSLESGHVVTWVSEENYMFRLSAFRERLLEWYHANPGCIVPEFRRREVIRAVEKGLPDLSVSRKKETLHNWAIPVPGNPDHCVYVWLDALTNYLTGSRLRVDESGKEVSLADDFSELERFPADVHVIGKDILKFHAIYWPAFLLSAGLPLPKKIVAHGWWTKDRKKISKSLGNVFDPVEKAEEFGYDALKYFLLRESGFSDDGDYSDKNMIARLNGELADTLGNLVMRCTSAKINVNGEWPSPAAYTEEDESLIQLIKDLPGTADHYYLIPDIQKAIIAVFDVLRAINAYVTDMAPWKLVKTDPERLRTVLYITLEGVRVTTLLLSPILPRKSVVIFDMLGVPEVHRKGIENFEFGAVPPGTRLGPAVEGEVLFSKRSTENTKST

[3] = target: T1, Methionyl-tRNA synthetase, putative; assay type: functional, Trypanosoma brucei brucei strain 927/4 GUTat10.1; remark: listed apart in the source
[4] = cells; assay type: functional, cell-based
[5] = cells; assay type: functional, cell-based; remark: listed apart in the source
[6] = target: T2, Long-chain-fatty-acid--AMP ligase FadD28 (Mycobacterium tuberculosis, UniProt P9WQ59); test: Fluorescence polarization aasay to screen for inhibitors that compete for the binding of FadD28 to a bisubstrate Measured in Biochemical System Using Plate Reader - 2147-01_Inhibitor_Dose_CherryPick_Activity.; assay type: functional, Mycobacterium tuberculosis H37Rv
T2 sequence (P9WQ59 whole entry): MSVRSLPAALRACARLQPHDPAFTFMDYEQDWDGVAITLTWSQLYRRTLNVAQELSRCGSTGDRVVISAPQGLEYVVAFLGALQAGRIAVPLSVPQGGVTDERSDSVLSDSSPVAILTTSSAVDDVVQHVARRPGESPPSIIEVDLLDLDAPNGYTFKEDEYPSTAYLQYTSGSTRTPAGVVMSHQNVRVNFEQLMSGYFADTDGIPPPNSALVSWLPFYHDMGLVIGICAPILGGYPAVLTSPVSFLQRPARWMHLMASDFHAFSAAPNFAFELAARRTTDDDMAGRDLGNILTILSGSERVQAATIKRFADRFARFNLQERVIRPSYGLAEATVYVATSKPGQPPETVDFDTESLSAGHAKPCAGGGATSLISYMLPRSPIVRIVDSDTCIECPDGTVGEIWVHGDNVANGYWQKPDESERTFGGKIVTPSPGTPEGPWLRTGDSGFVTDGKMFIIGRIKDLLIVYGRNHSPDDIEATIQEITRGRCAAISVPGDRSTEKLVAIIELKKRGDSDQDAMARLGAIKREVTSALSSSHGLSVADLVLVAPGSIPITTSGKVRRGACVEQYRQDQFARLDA

[7] = target: DNA dC->dU-editing enzyme APOBEC-3A (Homo sapiens, UniProt P31941); test: Dose Response confirmation of small molecule APOBEC3A DNA Deaminase Inhibitors via a fluorescence-based single-stranded DNA deaminase assay. [Related pubchem assays (depositor defined):AID493011, AID493024]; assay type: functional
[8] = target: T3, Heat shock factor protein 1 (Mus musculus, UniProt P38532); test: decrease of HSF1-responsive luciferase luminescence – cell-based, NIH3T3, dose retest, confirmation (AID 2382); assay type: functional;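 note: NIH3T3 fibroblasts with HSF1-driven luciferase reporter stressed by proteasome inhibitor MG132; luminescence from HSF1-driven luciferase expression after 8 hours of MG132 stress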
T3 sequence (P38532 whole entry): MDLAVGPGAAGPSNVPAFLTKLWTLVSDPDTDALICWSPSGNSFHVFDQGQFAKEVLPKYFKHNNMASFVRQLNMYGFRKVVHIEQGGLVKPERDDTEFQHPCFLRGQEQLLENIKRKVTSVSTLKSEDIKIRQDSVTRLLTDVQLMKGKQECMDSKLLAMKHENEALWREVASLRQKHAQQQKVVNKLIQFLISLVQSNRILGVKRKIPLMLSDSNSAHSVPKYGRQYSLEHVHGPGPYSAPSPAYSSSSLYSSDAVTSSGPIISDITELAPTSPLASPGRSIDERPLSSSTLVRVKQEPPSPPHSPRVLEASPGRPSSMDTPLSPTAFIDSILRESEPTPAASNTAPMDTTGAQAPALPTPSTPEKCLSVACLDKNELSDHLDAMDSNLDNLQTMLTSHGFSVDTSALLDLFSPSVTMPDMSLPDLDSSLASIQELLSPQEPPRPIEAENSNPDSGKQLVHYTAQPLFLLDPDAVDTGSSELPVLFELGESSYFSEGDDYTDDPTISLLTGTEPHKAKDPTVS

[9] = target: DNA dC->dU-editing enzyme APOBEC-3G (Homo sapiens, UniProt Q9HC16); assay type: functional;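 note: Dose-response counterscreen measuring inhibition of APOBEC3G DNA deaminase activity, run while confirming APOBEC3A inhibitors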
[10] = target: Arf-GAP with SH3 domain, ANK repeat and PH domain-containing protein 1 (Homo sapiens, UniProt Q9ULH1); assay type: functional;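 note: biochemical fluorescence polarization dose–response screen measuring inhibition of ASAP1; ASAP1 GAP domain stimulating GTP hydrolysis by truncated human ARF1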
[11] = target: Cytochrome P450 3A4 (Homo sapiens, UniProt P08684);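 note: CYP3A4 tested as one member of a cytochrome P450 panel screen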
[12] = target: T4, Cytochrome P450 1A2 (Homo sapiens, UniProt P05177);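 note: PubChem cytochrome P450 panel assay, CYP1A2 panel member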
T4 sequence (P05177 whole entry): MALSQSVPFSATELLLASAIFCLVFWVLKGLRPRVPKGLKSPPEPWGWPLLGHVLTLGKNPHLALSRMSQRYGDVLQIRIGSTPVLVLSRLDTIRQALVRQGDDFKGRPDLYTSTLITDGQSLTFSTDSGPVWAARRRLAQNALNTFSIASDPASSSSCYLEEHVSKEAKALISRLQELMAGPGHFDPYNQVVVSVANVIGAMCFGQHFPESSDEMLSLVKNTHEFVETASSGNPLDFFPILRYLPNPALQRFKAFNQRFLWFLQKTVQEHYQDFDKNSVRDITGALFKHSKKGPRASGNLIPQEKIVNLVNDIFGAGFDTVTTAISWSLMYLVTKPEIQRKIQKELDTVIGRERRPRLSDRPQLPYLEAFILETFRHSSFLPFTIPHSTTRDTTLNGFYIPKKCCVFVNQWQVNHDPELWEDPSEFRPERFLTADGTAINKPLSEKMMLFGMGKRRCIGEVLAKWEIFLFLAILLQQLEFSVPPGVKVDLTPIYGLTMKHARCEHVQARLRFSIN

Chain of Arf-GAP with SH3 domain, ANK repeat and PH domain-containing protein 1 (Q9ULH1 whole entry, the tested form may be a part): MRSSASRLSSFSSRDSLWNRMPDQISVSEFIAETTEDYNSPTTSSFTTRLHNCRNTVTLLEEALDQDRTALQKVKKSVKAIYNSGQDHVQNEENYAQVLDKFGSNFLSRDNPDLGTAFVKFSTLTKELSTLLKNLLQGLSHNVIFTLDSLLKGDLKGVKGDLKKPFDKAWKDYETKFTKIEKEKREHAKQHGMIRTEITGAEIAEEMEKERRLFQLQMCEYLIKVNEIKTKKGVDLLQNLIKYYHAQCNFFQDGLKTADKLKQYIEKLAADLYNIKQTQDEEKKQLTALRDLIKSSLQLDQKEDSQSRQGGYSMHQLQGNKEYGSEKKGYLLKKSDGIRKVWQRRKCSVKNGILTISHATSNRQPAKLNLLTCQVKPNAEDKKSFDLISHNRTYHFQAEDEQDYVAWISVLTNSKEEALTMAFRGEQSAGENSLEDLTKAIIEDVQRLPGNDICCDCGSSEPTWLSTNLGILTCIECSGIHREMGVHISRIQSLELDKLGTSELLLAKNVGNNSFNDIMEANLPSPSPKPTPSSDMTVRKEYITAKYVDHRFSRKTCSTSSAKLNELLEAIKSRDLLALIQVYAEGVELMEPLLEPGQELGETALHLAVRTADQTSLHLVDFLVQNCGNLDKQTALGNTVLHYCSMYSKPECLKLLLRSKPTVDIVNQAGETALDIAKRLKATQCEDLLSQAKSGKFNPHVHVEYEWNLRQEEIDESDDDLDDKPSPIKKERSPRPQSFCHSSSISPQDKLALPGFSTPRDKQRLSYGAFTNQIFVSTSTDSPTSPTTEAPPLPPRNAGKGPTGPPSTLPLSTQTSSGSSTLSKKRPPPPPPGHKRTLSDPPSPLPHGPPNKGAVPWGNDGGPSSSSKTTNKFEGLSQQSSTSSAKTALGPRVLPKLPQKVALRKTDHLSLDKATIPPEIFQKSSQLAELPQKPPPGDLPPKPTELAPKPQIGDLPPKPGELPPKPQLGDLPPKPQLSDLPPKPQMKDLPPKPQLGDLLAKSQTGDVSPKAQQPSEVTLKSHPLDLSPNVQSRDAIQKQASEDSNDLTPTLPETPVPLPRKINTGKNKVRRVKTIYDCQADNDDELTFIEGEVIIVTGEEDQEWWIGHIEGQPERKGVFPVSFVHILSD
Chain of Cytochrome P450 3A4 (P08684 whole entry): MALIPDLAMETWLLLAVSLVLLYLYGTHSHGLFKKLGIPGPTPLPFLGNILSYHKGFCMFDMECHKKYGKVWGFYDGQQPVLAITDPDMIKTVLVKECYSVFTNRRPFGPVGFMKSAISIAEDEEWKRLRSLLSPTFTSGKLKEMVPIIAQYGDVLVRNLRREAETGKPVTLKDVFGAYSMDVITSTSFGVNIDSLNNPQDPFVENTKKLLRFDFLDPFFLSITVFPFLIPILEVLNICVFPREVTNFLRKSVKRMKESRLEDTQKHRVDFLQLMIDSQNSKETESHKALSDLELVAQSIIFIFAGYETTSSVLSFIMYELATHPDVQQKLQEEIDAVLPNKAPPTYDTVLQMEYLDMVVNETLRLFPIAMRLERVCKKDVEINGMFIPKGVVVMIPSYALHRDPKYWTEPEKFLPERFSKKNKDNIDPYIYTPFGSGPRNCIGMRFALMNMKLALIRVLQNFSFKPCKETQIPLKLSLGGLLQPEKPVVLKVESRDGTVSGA
Chain of DNA dC->dU-editing enzyme APOBEC-3A (P31941 whole entry): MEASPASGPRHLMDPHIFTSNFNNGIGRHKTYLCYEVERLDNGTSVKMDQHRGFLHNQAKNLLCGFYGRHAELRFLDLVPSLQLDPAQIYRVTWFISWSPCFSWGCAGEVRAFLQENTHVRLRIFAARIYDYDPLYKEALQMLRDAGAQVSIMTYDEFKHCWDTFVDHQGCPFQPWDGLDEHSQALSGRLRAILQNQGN
Chain of DNA dC->dU-editing enzyme APOBEC-3G (Q9HC16 whole entry, the tested form may be a part): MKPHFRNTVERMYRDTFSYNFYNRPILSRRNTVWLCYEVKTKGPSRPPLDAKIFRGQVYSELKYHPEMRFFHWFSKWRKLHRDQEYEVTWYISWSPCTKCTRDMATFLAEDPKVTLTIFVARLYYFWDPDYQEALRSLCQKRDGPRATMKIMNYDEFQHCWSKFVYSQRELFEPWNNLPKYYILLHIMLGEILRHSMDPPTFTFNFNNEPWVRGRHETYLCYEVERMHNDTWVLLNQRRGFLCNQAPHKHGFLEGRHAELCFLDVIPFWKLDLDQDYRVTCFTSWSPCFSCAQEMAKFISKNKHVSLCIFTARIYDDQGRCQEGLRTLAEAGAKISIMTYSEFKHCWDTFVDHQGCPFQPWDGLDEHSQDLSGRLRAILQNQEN

Structure (SMILES) | IC50 [1] | IC50 [2] | IC50 [3] | also measured
O=C(COc1cccc(-n2cnnn2)c1)Nc1ccccc1 | 83.3 µM (inactive) | 76 µM (inactive) | 38.2 µM (inactive) | –
COc1ccc(/C=N/CC2OCCc3ccccc32)cc1OC (centres undefined) | – | – | – | IC50 [4]: > 29.9 µM (inactive); EC50 [5]: > 29.9 µM (inactive)
Cn1nc(C(F)(F)F)c(-c2cccc(C(F)(F)F)c2)c1NC(=O)Nc1ccc(F)cc1 | 28.9 µM (inactive) | 119 µM (inactive) | 10.4 µM (inactive) | –
O=C(Cc1ccc(Cl)c(Cl)c1)Nc1cccc(S(=O)(=O)N2CCOCC2)c1 | 34.8 µM (inactive) | 7.78 µM (active) | 4.48 µM (active) | –
CCOC(=O)C1CCCN(C(=O)c2cc(Nc3ccc(OC)cc3)nc3ccccc23)C1 (centres undefined) | – | – | – | AC50 [6]: 30.5 µM (active)
CCOc1ccc2c(c1)[N+](C)(C)C(C)(C)C=C2C | – | – | – | IC50 [7]: 2.96 µM (active); EC50 [8]: > 195 µM (not active); IC50 [9]: 3.2 µM (active)
Oc1c(C(c2ccc(F)cc2)N2CCc3ccccc3C2)sc2ncnn12 (centres undefined) | – | – | – | IC50 [4]: > 29.9 µM (inactive); EC50 [5]: > 29.9 µM (inactive)
Clc1ccc(Cn2cc(/C=N/n3cnnc3)c3ccccc32)c(Cl)c1 | – | – | – | IC50 [10]: 12.9 µM (inactive)
CCOc1ccc(C(=O)Nc2cccc(-c3cc4ccccc4oc3=O)c2)cc1[N+](=O)[O-] | – | – | – | AC50 [11]: 10 µM (inconclusive); IC50 [10]: 37.9 µM (inactive); AC50 [12]: 5.62 µM (inconclusive)
OC(c1cc(Cl)cc(Cl)c1)c1nc(-c2cccc(F)c2)c[nH]1 (centres undefined) | 83.3 µM (inactive) | 10.6 µM (inactive) | 7.94 µM (active) | –

From ChEMBL document CHEMBL1201862, “PubChem BioAssay data set” (2004)
